How the values were obtained:
[1] = tested on: hippocampal CA3-CA1 excitatory synapses; assay: S-eCB mobilization induced spike timing-dependent potentiation (tLTP) protocol, EPSP slope; type: cell-based, Sprague-Dawley rats; conditions: m-3M3FBS 30 μM; AβO-treated rat hippocampal slices; similar to level in DMSO-treated slices
Experimental: (§1) Soluble AβO was prepared according to a previous study (BMC Biol. 2020; 18(1):7). Specifically, Aβ1-42 (Aβ) and a scrambled form of Aβ as a control peptide were purchased in powder form. Aβ and scrambled Aβ were dissolved for monomerization in 1,1,1,3,3,3-hexafluoro-2-propanol (HFIP, Sigma Aldrich, USA) at a final concentration of 1 mM, and the solution was incubated for 90 minutes. After the HFIP was evaporated, the remaining thin and clear film of Aβ or scrambled Aβ was dissolved in dimethyl sulfoxide (DMSO, Sigma Aldrich, USA) to prepare 5 mM Aβ or scrambled Aβ stocks, which were aliquoted and frozen at −20° C. Aβ or scrambled Aβ stocks were thawed and diluted to 100 μM in artificial cerebrospinal fluid (ACSF). Thereafter, Aβ or scrambled Aβ stocks were incubated for oligomerization for 18 hours. The final AβO or scrambled AβO stock solution was diluted to a final concentration of 200 nM in 31.2 ml of ACSF, and rat hippocampal slices were treated with the stock solution for 20 minutes in a recovery chamber before measurement of brain signals. In control experiments for normal brain conditions using a vehicle, rat hippocampal slices were treated with 0.004% DMSO in ACSF.
(§2) The brains of SD rats were isolated following decapitation under isoflurane-induced anesthesia and transferred into ice-cold ACSF containing 126 mM NaCl, […], 1.25 mM NaH2PO4, 2 mM MgSO4, 2 mM CaCl2), 25 mM NaHCO3, and 10 mM glucose (pH 7.2 to 7.4). The ACSF was continuously oxygenated with 95% O2/5% CO2. Horizontal hippocampal slices (350 μm thickness) were obtained using a vibratome (VT1000S, Leica Biosystems, Germany) and immediately incubated at room temperature in a submerged chamber perfused with oxygenated ACSF for at least 1 hour.

[2] = tested on: CA1 PCs in rat hippocampal slices; assay: Ex vivo eCB / S-eCB mobilization protocol: eIPSC amplitudes by whole-cell voltage-clamp; type: cell-based, Sprague-Dawley rats; conditions: m-3M3FBS 30 μM
Excerpt: To test the acute effect of AβO on hippocampal S-eCB mobilization, hippocampal slices from Sprague-Dawley rats (SD, 2 to 3 weeks old, DaeHan Biolink, Co., Ltd., Korea) were used. Male and female rats were used in all in vitro experiments. To test the chronic effect of AβO on hippocampus-dependent memory impairments caused by amyloidosis, the 5XFAD mouse model (6 to 7 months old, #34840-JAX, Jackson Laboratory, USA), which is a mouse model of Alzheimer's disease that mimics AβO depositions, was used. C57BL/6 mice (6 to 7 months old, KOATECH, Korea) were used as wild type (WT) control mice for 5XFAD mice. Male 5XFAD and C57BL/6 mice were used for all in vivo behavioral experiments. The 5XFAD mouse genotypes were identified by polymerase chain reaction (PCR) using DNA extracted from the tails of the mice. All animal-related procedures followed the guidelines of the Institutional Animal Care and Use Committee of Korea University (guidelines for SD rats: KUIACUC-2017-103, guidelines for C57BL/6 and 5XFAD mice: KUIACUC-2019-0068).
as §1, §2
To quantify eCB mobilization, the changes in eCB mobilization-induced Schaffer collateral (SC) nerve bundle stimulation-evoked inhibitory postsynaptic current (eIPSC) amplitudes were measured in CA1 PCs through the whole-cell voltage-clamp technique. The whole-cell voltage-clamp technique in CA1 PCs was performed using a MultiClamp 700B amplifier (Molecular Devices, USA) under an infrared differential interference contrast video microscope (BW51W, Olympus, Japan), using a borosilicate electrode (tip resistance: 4 to 8 MΩ) that was filled with an intracellular solution containing 145 mM CsCl, 10 mM HEPES, 2 mM EGTA, 4 mM QX-314, 4 mM Mg-ATP, 0.4 mM […], pH 7.2 to 7.3, and 270 to 280 mOsm/L. To record eIPSCs in the CA1 PCs, a stimulating electrode (A-M Systems, USA) was placed in a stratum radiatum to stimulate the SC pathway that carries CA3 PC axons. Electrical stimulation pulses of 200 to 400 μA amplitudes (20 to 40 μs) were generated using a constant current stimulator (model DS3, Digitimer Ltd., UK). eIPSCs were recorded in CA PCs every 1 second while maintaining the membrane potential at −70 mV.

## Cc1cc(C)c(S(=O)(=O)Nc2cccc(C(F)(F)F)c2)c(C)c1 [m-3M3FBS]
[1]
  tLTP in AβO-treated slices: completely recovered
[2]; AβO-treated rat hippocampal slices
  synergistic enhancement of the suppression of eIPSC amplitudes (S-eCB mobilization) in AβO-treated slices: completely recovered
[2]; DMSO-treated and scrambled AβO-treated rat hippocampal slices
  suppression of eIPSC amplitudes, recordings in DMSO-treated and scrambled AβO-treated slices: not significantly different

— patent US20250049741A1, “COMPOSITION FOR PREVENTING OR TREATING ALZHEIMER'S DISEASE COMPRISING PHOSPHOLIPASE C ACTIVATOR AS AN ACTIVE INGREDIENT” (Korea University Research and Business Foundation, priority 2021, published 2025)
